Series [1] relates to brain metastases. The experiment in a line: Treatment of thirteen additional human patients suffering from brain metastases with ABDNAZ in combination with whole brain radiation therapy. It counts as in vivo. The following applies: ABDNAZ 1.25 to 8.4 mg/m^2 IV + WBRT 30 Gy. The method, then: Thirteen human patients suffering from brain metastases were treated according to the protocol described in Part I below using ABDNAZ in combination with whole brain radiation therapy.
ABDNAZ was administered intravenously at a dosage in the range of 1.25 mg/m^2 to 8.4 mg/m^2. During radiation therapy, (i) subjects were treated in the supine position, (ii) adequate immobilization and reproducibility of position was ensured using thermoplastic mask, (iii) the target volume included the whole brain, per the treating radiation oncologist, (iv) the lens of the eye was excluded from the beam using shielding or by beam collimation, (v) the dose of radiation is specified at central axis at mid-plane, (vi) whole brain radiotherapy was delivered with a daily fraction size of 3.0 Gy per fraction given 5 days a week for a total dose of 30 Gy, and (vii) radiation therapy was delivered using photon beam energies of 6 MV and an opposed lateral technique, where all fields are treated during each treatment session.

The subject of a further series is SCCVII tumor. The experiment in a line: Impact of time between administration of ABDNAZ and radiation therapy on tumor growth delay. The series is classed as in vivo, mice. Particulars: ABDNAZ 15 mg/kg IP single dose at -24 h, -2 h, concurrent, +2 h or +24 h; single local 7 Gy; FIG. 1. The method, then: The impact of the time interval between administration of ABDNAZ and radiation therapy on tumor growth delay was evaluated in mice having a SCCVII tumor. Experimental procedures and results are described below.
Mice having a SCCVII tumor were treated with radiation therapy and ABDNAZ, where the length of time between administration of radiation therapy and ABDNAZ was varied. Radiation therapy was administered as a single local dose of 7 Gy of radiation. ABDNAZ was dosed in 5 groups of mice at 15 mg/kg IP as a single dose at one of the following time points: 24 hours prior to radiation therapy, 2 hours prior to radiation therapy, concurrent with radiation therapy, 2 hours after radiation therapy, or 24 hours after radiation therapy.

Series [2] deals with brain metastases. The experiment in a line: Treatment of two human patients suffering from brain metastases with ABDNAZ in combination with whole brain radiation therapy. It counts as in vivo. On the procedure:
Two human patients suffering from brain metastases were treated according to the protocol described in Part I below using ABDNAZ in combination with whole brain radiation therapy.
ABDNAZ was administered intravenously in a formulation containing ABDNAZ, polyethylene glycol having a number-average molecular weight of 400 g/mol (PEG-400), water for injection, and NN-dimethylacetamide. A single dosage of ABDNAZ was 5 mg/m^2. During radiation therapy, (i) subjects were treated in the supine position, (ii) adequate immobilization and reproducibility of position was ensured using thermoplastic mask, (iii) the target volume included the whole brain, per the treating radiation oncologist, (iv) the lens of the eye was excluded from the beam using shielding or by beam collimation, (v) the dose of radiation is specified at central axis at mid-plane, (vi) whole brain radiotherapy was delivered with a daily fraction size of 3.0 Gy per fraction given 5 days a week for a total dose of 30 Gy, and (vii) radiation therapy was delivered using photon beam energies of 6 MV and an opposed lateral technique, where all fields are treated during each treatment session.

Where [3] appears, read: first patient, four weeks after completion of ABDNAZ + WBRT.

For the compound `O=C(CBr)N1CC([N+](=O)[O-])([N+](=O)[O-])C1` [ABDNAZ], in the series on brain metastases [1], the adverse events result is recorded as “No adverse events were observed”; the “patients with decrease of at least 30% in sum of longest diameters of target lesions and absolute decrease of at least 5 mm in at least one target lesion” value was “Approximately 50%”. Besides, the “tumor growth delay versus time interval between ABDNAZ and radiation therapy” value with SCCVII tumor is “Maximum tumor growth delay occurred when ABDNAZ was administered minutes before or concomitant with radiation therapy”. In addition, the “k^trans by dynamic contrast-enhanced brain MRI” value with brain metastases [2] (first patient (melanoma brain metastases), 24 hours after first dose of ABDNAZ 5 mg/m^2 IV) is “decrease in k^trans in 4 of 5 lesions”. Besides, the “size of new lesion discovered” value with brain metastases [2] (first patient, 4 months after completion of ABDNAZ + WBRT, possibly seeding from systemic disease) is on record as 5 mm. Moreover, in the series with brain metastases [2] (first patient, ABDNAZ 5 mg/m^2 IV + WBRT 30 Gy), the tolerability result was “well-tolerated with mild, transient infusion site pain, and without any signs of systemic or neurologic toxicity”. For the same compound, the visual symptoms result with brain metastases [2] (first patient, by the end of treatment with ABDNAZ + WBRT) is given as “improved visual symptoms with near resolution of visual field-deficit”. Also, in the series with brain metastases [2] (first patient, four months after completion of ABDNAZ + WBRT), the “edema associated with lesions” value is “decrease in associated edema of all lesions”. Moreover, in the series on brain metastases [2] (setting [3]), the “physical function, Barthel ADL index” value was “unchanged from baseline”; the “size of brain lesions by contrasted brain MRI” value is “decrease in the size of the largest right and left occipital masses”. The visual symptoms entry in the series on brain metastases [2] (first patient, within 48 hours of receiving the first dose of radiation therapy, ABDNAZ 5 mg/m^2 IV + WBRT) is listed as “began to improve”. In the series with brain metastases [2] (second patient, 3 months after end of ABDNAZ + WBRT), the “number of sub-centimeter metastases with complete disappearance” value turned out to be 3. Besides, the “lesion response on serial re-imaging” value with brain metastases [2] (second patient, at least 18 brain metastases at baseline, ABDNAZ + WBRT) was “response in all 18 visualized lesions”. Besides, the infusion site pain entry in the series with brain metastases [2] (second patient, during treatment) was “no significant infusion site pain”. Besides, the “k^trans by DCE-MRI” value in the series on brain metastases [2] (second patient, largest evaluable lesion, 24 hours after first administration of ABDNAZ) is “slight reduction in k^trans”. Moreover, in the series on brain metastases [2] (second patient, one month after end of ABDNAZ + WBRT), the “physical function, Barthel ADL index” value is “unchanged from baseline”.

For the origin of these results see patent publication US11160784B1, “Treatment of brain metastases using organonitro compound combination therapy” (EpicentRx, Inc., priority 2015, dated 2021).
